# Measured values: ChEMBL document CHEMBL5042530, “Discovery of Novel Pyridine-Dimethyl-Phenyl-DAPY Hybrids by Molecular Fusing of Methyl-Pyrimidine-DAPYs and Difluoro-Pyridinyl-DAPYs: Improving the Druggability toward High Inhibitory Activity, Solubility, Safety, and PK” (J Med Chem, 2022)
# Key:
# [1] = Half life in Sprague-Dawley rat at 5 mg/kg, IG measured up to 24 hrs by LCMS analysis; format: ADME, organism-based; settings: in vivo, po
# Cytochrome P450 1A2 = target: T1, Cytochrome P450 1A2 (Homo sapiens, UniProt P05177); assay: Inhibition of CYP1A2 in human liver microsomes using phenacetin as substrate incubated for 15 to 45 mins in presence of NADPH; format: ADME
# T1 sequence (P05177 whole entry): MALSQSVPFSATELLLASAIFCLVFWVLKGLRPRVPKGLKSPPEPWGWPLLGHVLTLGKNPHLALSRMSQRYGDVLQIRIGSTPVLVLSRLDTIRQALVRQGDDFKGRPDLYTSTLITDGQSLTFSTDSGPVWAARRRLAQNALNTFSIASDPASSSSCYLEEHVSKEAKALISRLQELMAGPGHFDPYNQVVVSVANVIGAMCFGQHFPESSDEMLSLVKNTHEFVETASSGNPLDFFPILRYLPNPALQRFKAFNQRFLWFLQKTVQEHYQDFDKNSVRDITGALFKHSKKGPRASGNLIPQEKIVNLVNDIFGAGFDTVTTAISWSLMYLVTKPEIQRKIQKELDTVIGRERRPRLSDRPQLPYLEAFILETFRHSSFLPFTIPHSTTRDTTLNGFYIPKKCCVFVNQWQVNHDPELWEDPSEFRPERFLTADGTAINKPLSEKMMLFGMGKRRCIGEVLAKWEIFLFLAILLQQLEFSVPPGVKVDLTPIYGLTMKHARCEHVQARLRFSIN
# Cytochrome P450 2C9 = Cytochrome P450 2C9 (Homo sapiens, UniProt P11712); assay: Inhibition of CYP2C9 in human liver microsomes using tolbutamide as substrate incubated for 15 to 45 mins in presence of NADPH
# Cytochrome P450 2C19 = Cytochrome P450 2C19 (Homo sapiens, UniProt P33261); assay: Inhibition of CYP2C19 in human liver microsomes using S-mephenytoin as substrate incubated for 15 to 45 mins in presence of NADPH; format: ADME
# Cytochrome P450 2D6 = Cytochrome P450 2D6 (Homo sapiens, UniProt P10635); assay: Inhibition of CYP2D6 in human liver microsomes using dextromethorphan as substrate incubated for 15 to 45 mins in presence of NADPH; format: ADME
# [2] = Inhibition of CYP3A4T in human liver microsomes using testosterone as substrate incubated for 15 to 45 mins in presence of NADPH; format: ADME
# [3] = Inhibition of CYP3A4M in human liver microsomes using midazolam as substrate incubated for 15 to 45 mins in presence of NADPH; format: ADME
# [4] = Half life in Sprague-Dawley rat at 1 mg/kg, iv measured up to 24 hrs by LCMS analysis; format: ADME, organism-based; settings: in vivo
# [5] = Tmax in Sprague-Dawley rat at 5 mg/kg, po administered via gavage measured up to 24 hrs by LCMS analysis; format: ADME, organism-based; settings: in vivo
# [6] = Cmax in Sprague-Dawley rat at 5 mg/kg, po administered via gavage measured up to 24 hrs by LCMS analysis; format: ADME, organism-based; design: route oral, dose 5 mg/kg, time <=24; settings: in vivo
# [7] = Oral bioavailability in Sprague-Dawley rat at 5 mg/kg administered via gavage measured up to 24 hrs by LCMS analysis; format: ADME, organism-based; settings: in vivo
# [8] = Metabolic stability in mouse liver microsomes assessed as intrinsic clearance at 1 uM presence of NADPH measured up to 60 mins by LC-MS/MS analysis; format: ADME, Microsome; settings: read-out: CLH
# [9] = Metabolic stability in rat liver microsomes assessed as intrinsic clearance at 1 uM presence of NADPH measured up to 60 mins by LC-MS/MS analysis; format: ADME, Microsome; settings: read-out: CLH
# [10] = Metabolic stability in human liver microsomes assessed as intrinsic clearance at 1 uM presence of NADPH measured up to 60 mins by LC-MS/MS analysis; format: ADME, Microsome; settings: read-out: CLH
# [11] = Metabolic stability in mouse liver microsomes assessed as half life at 1 uM presence of NADPH measured up to 60 mins by LC-MS/MS analysis; format: ADME, Microsome
# [12] = Acute toxicity in fasted male mouse assessed as death at 2 g/Kg, IG administered as single dose measured every day for 14 days; settings: in vivo, po, 2000 mg/kg, 336 h, time 14 day
# [13] = Acute toxicity in fasted male mouse assessed as abnormal behavior at 2 g/Kg, IG administered as single dose measured every day for 14 days; settings: in vivo, po, 2000 mg/kg, 336 h, time 14 day
# [14] = Acute toxicity in fasted male mouse assessed as increase in body weight at 2 g/Kg, IG administered as single dose measured every day for 14 days; settings: in vivo, po, 2000 mg/kg, 336 h, time 14 day
# [15] = Acute toxicity in fasted male mouse assessed as pathological changes in brain at 2 g/Kg, IG administered as single dose measured after 14 days by HE staining based assay; format: tissue-based; settings: in vivo, po, 2000 mg/kg, 336 h, time 14 day
# [16] = Acute toxicity in fasted male mouse assessed as pathological changes in heart at 2 g/Kg, IG administered as single dose measured after 14 days by HE staining based assay; format: tissue-based; settings: in vivo, po, 2000 mg/kg, 336 h, time 14 day
# [17] = Acute toxicity in fasted male mouse assessed as pathological changes in liver at 2 g/Kg, IG administered as single dose measured after 14 days by HE staining based assay; format: tissue-based; settings: in vivo, po, 2000 mg/kg, 336 h, time 14 day
# [18] = Acute toxicity in fasted male mouse assessed as pathological changes in spleen at 2 g/Kg, IG administered as single dose measured after 14 days by HE staining based assay; format: tissue-based; settings: in vivo, po, 2000 mg/kg, 336 h, time 14 day
# [19] = Acute toxicity in fasted male mouse assessed as pathological changes in lung at 2 g/Kg, IG administered as single dose measured after 14 days by HE staining based assay; format: tissue-based; settings: in vivo, po, 2000 mg/kg, 336 h, time 14 day
# [20] = Acute toxicity in fasted male mouse assessed as pathological changes in kidney at 2 g/Kg, IG administered as single dose measured after 14 days by HE staining based assay; format: tissue-based; settings: in vivo, po, 2000 mg/kg, 336 h, time 14 day
# [21] = Acute toxicity in fasted female mouse assessed as death at 2 g/Kg, IG administered as single dose measured every day for 14 days; settings: in vivo, po, 2000 mg/kg, 336 h, time 14 day
# [22] = Acute toxicity in fasted female mouse assessed as abnormal behavior at 2 g/Kg, IG administered as single dose measured every day for 14 days; settings: in vivo, po, 2000 mg/kg, 336 h, time 14 day
# [23] = Acute toxicity in fasted female mouse assessed as increase in body weight at 2 g/Kg, IG administered as single dose measured every day for 14 days; settings: in vivo, po, 2000 mg/kg, 336 h, time 14 day
# [24] = Acute toxicity in fasted female mouse assessed as pathological changes in brain at 2 g/Kg, IG administered as single dose measured after 14 days by HE staining based assay; format: tissue-based; settings: in vivo, po, 2000 mg/kg, 336 h, time 14 day
# [25] = Acute toxicity in fasted female mouse assessed as pathological changes in heart at 2 g/Kg, IG administered as single dose measured after 14 days by HE staining based assay; format: tissue-based; settings: in vivo, po, 2000 mg/kg, 336 h, time 14 day
# [26] = Acute toxicity in fasted female mouse assessed as pathological changes in liver at 2 g/Kg, IG administered as single dose measured after 14 days by HE staining based assay; format: tissue-based; settings: in vivo, po, 2000 mg/kg, 336 h, time 14 day
# [27] = Acute toxicity in fasted female mouse assessed as pathological changes in spleen at 2 g/Kg, IG administered as single dose measured after 14 days by HE staining based assay; format: tissue-based; settings: in vivo, po, 2000 mg/kg, 336 h, time 14 day
# [28] = Acute toxicity in fasted female mouse assessed as pathological changes in lung at 2 g/Kg, IG administered as single dose measured after 14 days by HE staining based assay; format: tissue-based; settings: in vivo, po, 2000 mg/kg, 336 h, time 14 day
# [29] = Acute toxicity in fasted female mouse assessed as pathological changes in kidney at 2 g/Kg, IG administered as single dose measured after 14 days by HE staining based assay; format: tissue-based; settings: in vivo, po, 2000 mg/kg, 336 h, time 14 day
# [30] = Metabolic stability in human liver microsomes assessed as half life at 1 uM presence of NADPH measured up to 60 mins by LC-MS/MS analysis; format: ADME, Microsome
# [31] = Metabolic stability in rat liver microsomes assessed as half life at 1 uM presence of NADPH measured up to 60 mins by LC-MS/MS analysis; format: ADME, Microsome
# [32] = Aqueous solubility of the compound in PBS buffer at pH 2 measured after 24 hrs by HPLC-UV analysis; format: physicochemical
# [33] = Aqueous solubility of the compound in PBS buffer at pH 7 measured after 24 hrs by HPLC-UV analysis; format: physicochemical
# [34] = Aqueous solubility of the compound in PBS buffer at pH 7.4 measured after 24 hrs by HPLC-UV analysis; format: physicochemical
# [35] = AUC (0 to last) in Sprague-Dawley rat at 5 mg/kg, po administered via gavage measured up to 24 hrs by LCMS analysis; format: ADME, organism-based; design: route oral, dose 5 mg/kg, time <=24; settings: in vivo
# [36] = AUC (0 to last) in Sprague-Dawley rat at 1 mg/kg, iv measured up to 24 hrs by LCMS analysis; format: ADME, organism-based; design: route intravenous, dose 1 mg/kg, time <=24; settings: in vivo
# [37] = AUCinfinity in Sprague-Dawley rat at 5 mg/kg, po administered via gavage measured up to 24 hrs by LCMS analysis; format: ADME, organism-based; design: route oral, dose 5 mg/kg, time <=24; settings: in vivo
# [38] = AUCinfinity in Sprague-Dawley rat at 1 mg/kg, iv measured up to 24 hrs by LCMS analysis; format: ADME, organism-based; design: route intravenous, dose 1 mg/kg, time <=24; settings: in vivo
# [39] = MRTinfinity in Sprague-Dawley rat at 5 mg/kg, po administered via gavage measured up to 24 hrs by LCMS analysis; format: ADME, organism-based; settings: in vivo
# [40] = MRTinfinity in Sprague-Dawley rat at 1 mg/kg, iv measured up to 24 hrs by LCMS analysis; format: ADME, organism-based; settings: in vivo
# [41] = Half life in Sprague-Dawley rat at 5 mg/kg, po administered via gavage measured up to 24 hrs by LCMS analysis; format: ADME, organism-based; settings: in vivo
# Cytochrome P450 2D6, sequence (P10635 whole entry): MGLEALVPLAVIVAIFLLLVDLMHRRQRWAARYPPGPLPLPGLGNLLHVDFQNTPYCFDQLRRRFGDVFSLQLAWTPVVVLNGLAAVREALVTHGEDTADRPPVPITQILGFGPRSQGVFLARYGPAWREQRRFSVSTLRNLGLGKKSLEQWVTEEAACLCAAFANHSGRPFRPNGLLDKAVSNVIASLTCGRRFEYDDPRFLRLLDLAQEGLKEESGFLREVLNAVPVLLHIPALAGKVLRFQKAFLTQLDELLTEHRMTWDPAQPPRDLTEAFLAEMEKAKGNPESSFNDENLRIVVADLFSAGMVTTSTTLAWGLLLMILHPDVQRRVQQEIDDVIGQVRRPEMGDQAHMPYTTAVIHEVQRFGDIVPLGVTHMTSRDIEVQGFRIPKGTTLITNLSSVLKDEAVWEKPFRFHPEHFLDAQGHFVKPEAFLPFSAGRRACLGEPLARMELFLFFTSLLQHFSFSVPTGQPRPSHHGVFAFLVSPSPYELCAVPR
# Cytochrome P450 2C9, sequence (P11712 whole entry): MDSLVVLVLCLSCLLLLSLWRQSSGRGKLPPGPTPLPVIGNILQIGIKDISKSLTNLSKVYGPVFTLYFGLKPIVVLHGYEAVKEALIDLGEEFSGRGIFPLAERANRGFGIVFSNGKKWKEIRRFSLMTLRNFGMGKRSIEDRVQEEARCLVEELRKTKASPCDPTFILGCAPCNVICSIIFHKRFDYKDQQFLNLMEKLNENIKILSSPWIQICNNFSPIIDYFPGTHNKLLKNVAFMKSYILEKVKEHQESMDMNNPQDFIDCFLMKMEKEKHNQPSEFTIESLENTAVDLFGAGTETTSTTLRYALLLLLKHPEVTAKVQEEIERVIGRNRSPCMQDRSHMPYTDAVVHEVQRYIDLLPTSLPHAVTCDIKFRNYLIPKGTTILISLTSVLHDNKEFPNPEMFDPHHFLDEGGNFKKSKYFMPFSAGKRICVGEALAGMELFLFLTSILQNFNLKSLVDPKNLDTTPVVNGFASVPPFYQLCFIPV
# Cytochrome P450 2C19, sequence (P33261 whole entry): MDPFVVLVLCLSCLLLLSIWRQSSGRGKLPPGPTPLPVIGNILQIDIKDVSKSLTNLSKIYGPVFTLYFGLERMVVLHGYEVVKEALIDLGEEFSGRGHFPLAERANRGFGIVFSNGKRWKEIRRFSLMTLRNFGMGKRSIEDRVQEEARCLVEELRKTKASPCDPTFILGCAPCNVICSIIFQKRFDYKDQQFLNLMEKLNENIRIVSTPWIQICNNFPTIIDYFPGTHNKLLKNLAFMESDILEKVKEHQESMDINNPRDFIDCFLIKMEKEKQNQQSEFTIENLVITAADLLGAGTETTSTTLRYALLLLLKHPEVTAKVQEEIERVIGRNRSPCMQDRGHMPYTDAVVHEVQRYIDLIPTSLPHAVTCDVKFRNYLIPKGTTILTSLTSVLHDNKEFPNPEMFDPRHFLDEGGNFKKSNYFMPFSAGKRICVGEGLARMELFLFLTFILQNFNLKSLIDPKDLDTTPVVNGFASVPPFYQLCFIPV
Compound,IC50 (Cytochrome P450 1A2),IC50 (Cytochrome P450 2C9),IC50 (Cytochrome P450 2C19),IC50 (Cytochrome P450 2D6),IC50 [2],IC50 [3],half-life [4],Tmax [5],Cmax [6],bioavailability [7],Activity [12],Activity [13],Activity [14],Activity [15],Activity [16],Activity [17],Activity [18],Activity [19],Activity [20],Activity [21],also measured
N#Cc1ccc(Nc2nccc(Nc3c(F)cc(-c4ccncc4)cc3F)n2)cc1,,,,,,,,,,,,,,,,,,,,,half-life [1]: 50.4 min
Br.Cc1cnc(Nc2ccc(C#N)cc2)nc1Nc1c(F)cc(-c2ccncc2)cc1F,4.1 µM,4.5 µM,2.2 µM,7.6 µM,19 µM,29 µM,48.6 min,15 min,2.14 ng/mL,0.9%,Non-Toxic,Non-Toxic,Toxic,Non-Toxic,Non-Toxic,Non-Toxic,Non-Toxic,Non-Toxic,Non-Toxic,Non-Toxic,microsomal CLint at 1 µM [8]: 24.9 µL/min/mg; microsomal CLint at 1 µM [9]: 31.8 µL/min/mg; microsomal CLint at 1 µM [10]: 14.6 µL/min/mg; half-life at 1 µM [11]: 56 min; Activity [22]: Non-Toxic; Activity [23]: Toxic; Activity [24]: Non-Toxic; Activity [25]: Non-Toxic; Activity [26]: Non-Toxic; Activity [27]: Non-Toxic; Activity [28]: Non-Toxic; Activity [29]: Non-Toxic; half-life at 1 µM [30]: 95 min; half-life at 1 µM [31]: 44 min
Cc1cc(-c2ccncc2)cc(C)c1Nc1ccnc(Nc2ccc(C#N)cc2)n1.Cl,> 30 µM,17 µM,6.8 µM,> 30 µM,20 µM,21 µM,21.6 min,60 min,365 ng/mL,59.4%,Non-Toxic,Non-Toxic,Toxic,Non-Toxic,Non-Toxic,Non-Toxic,Non-Toxic,Non-Toxic,Non-Toxic,Non-Toxic,solubility at 24 h [32]: 584 µg/mL; solubility at 24 h [33]: 9.1 µg/mL; solubility at 24 h [34]: 9 µg/mL; AUC(0-t) at 24 h [35]: 835 ng·h/mL; AUC(0-t) at 24 h [36]: 285 ng·h/mL; AUC(0-inf) [37]: 861 ng·h/mL; AUC(0-inf) [38]: 290 ng·h/mL; MRT inf [39]: 2.1 h; MRT inf [40]: 28.8 min; half-life [41]: 132 min; Activity [22]: Non-Toxic; Activity [23]: Toxic; Activity [24]: Non-Toxic; Activity [25]: Non-Toxic; Activity [26]: Non-Toxic; Activity [27]: Non-Toxic; Activity [28]: Non-Toxic; Activity [29]: Non-Toxic
